Measured values: patent US20230167073A1 (Teijin Pharma Limited, priority 2020, published 2023)

Each molecule was assayed against T1, Human TRPC6 (Homo sapiens, UniProt Q9Y210) (assay: Evaluation of TRPC6 channel inhibitory activity (1), FLIPR Calcium 5 Assay Kit, OAG stimulation (Compound Nos. 1-1293)). Settings: Human TRPC6 stably-expressing cells, OAG 30 μM, FLIPR Calcium 5 Assay Kit; read-out: Inhibitory activity (pIC50 class) (converted).
T1 construct: expressed in transfected cells
T1 sequence (Q9Y210 1-931): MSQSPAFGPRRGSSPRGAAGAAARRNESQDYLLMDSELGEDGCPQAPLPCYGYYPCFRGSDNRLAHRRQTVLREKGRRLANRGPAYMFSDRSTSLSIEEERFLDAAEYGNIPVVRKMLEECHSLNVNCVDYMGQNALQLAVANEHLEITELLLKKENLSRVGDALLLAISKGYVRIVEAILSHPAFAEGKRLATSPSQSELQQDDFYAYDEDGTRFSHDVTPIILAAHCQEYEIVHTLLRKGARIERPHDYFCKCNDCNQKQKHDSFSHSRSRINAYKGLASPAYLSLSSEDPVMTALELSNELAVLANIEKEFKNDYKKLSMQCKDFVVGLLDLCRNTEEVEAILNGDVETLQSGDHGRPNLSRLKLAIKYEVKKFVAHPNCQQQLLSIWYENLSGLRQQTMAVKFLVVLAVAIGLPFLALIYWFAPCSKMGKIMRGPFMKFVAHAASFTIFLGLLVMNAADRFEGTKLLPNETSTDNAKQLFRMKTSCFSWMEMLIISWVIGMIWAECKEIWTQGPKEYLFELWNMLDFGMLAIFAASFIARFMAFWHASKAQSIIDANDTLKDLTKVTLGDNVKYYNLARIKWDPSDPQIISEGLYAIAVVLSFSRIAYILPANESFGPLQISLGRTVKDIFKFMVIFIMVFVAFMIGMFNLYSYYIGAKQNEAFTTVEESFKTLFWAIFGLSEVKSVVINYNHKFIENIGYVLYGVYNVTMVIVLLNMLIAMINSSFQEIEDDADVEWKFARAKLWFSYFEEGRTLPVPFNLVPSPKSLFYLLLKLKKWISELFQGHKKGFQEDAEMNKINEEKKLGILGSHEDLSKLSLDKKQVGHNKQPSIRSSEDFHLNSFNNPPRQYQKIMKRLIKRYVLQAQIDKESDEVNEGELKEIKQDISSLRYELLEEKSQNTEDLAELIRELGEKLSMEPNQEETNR
Format: cell-based
Procedure, shortened: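 Stable human TRPC6 line; fluorescent Ca2+ dye loading, then 20 min compound exposure before 30 μM OAG trigger. Peak-minus-baseline signal converted to % inhibition against untreated and unstimulated wells; potency given as pIC50 band.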

Row | SMILES | IC50 [nM]
1 | Cc1cc(Oc2cc(C#N)ccc2-c2ncc(CCN)cn2)cc(N2CCOC[C@@H]2C)n1 [compound 471, 4-[5-(2-aminoethyl)pyrimidin-2-yl]-3-[2-methyl-6-[(3S)-3-methylmorpholin-4-yl]pyridin-4-yl]oxybenzonitrile] | < 10
2 | Cc1nc(Oc2cc(C#N)ccc2-c2ncc(CN)cn2)cc(-c2ccccn2)n1 [compound 472, 4-[5-(aminomethyl)pyrimidin-2-yl]-3-(2-methyl-6-pyridin-2-ylpyrimidin-4-yl)oxybenzonitrile] | 10 to 1000
3 | Cc1nc(Oc2cc(C#N)ccc2-c2ncc(CN)cn2)cc(-c2ccc(F)cn2)n1 [compound 474, 4-[5-(aminomethyl)pyrimidin-2-yl]-3-[6-(5-fluoropyridin-2-yl)-2-methylpyrimidin-4-yl]oxybenzonitrile] | > 1000
4 | Cn1nc(C2CC2)cc1Oc1cc(C#N)ccc1-c1cccc2nc(N)nn12 [compound 475, 4-(2-amino-[1,2,4]triazolo[1,5-a]pyridin-5-yl)-3-(5-cyclopropyl-2-methylpyrazol-3-yl)oxybenzonitrile] | > 1000
5 | Cc1cc(Oc2cc(C#N)ccc2-c2ccc([C@H](O)CN)cn2)cc(OCC2CCCO2)n1 (stereo partly drawn) [compound 478, 4-[5-[(1S)-2-amino-1-hydroxyethyl]pyridin-2-yl]-3-[2-methyl-6-(oxolan-2-ylmethoxy)pyridin-4-yl]oxybenzonitrile] | 10 to 1000
6 | Cn1nc(C2CC2)cc1Oc1cc(C#N)ccc1-c1cccc(CN)n1 [compound 480, 4-[6-(aminomethyl)pyridin-2-yl]-3-(5-cyclopropyl-2-methylpyrazol-3-yl)oxybenzonitrile] | > 1000
7 | Cn1nc(C2CC2)cc1Oc1cc(C#N)ccc1-c1cc(CCN)ccn1 [compound 482, 4-[4-(2-aminoethyl)pyridin-2-yl]-3-(5-cyclopropyl-2-methylpyrazol-3-yl)oxybenzonitrile] | < 10
8 | Cn1nc(C2CCCO2)cc1Oc1cc(C#N)ccc1-c1ncc(CCN)cn1 (stereo not drawn) [compound 483, 4-[5-(2-aminoethyl)pyrimidin-2-yl]-3-[2-methyl-5-(oxolan-2-yl)pyrazol-3-yl]oxybenzonitrile] | < 10
9 | Cn1nc(N2CCOCC2)cc1Oc1cc(C#N)ccc1-c1ccc(CCN)cn1 [compound 485, 4-[5-(2-aminoethyl)pyridin-2-yl]-3-(2-methyl-5-morpholin-4-ylpyrazol-3-yl)oxybenzonitrile] | < 10

More lines, now with the values ahead:

Row | IC50 [nM] | SMILES
10 | 10 to 1000 | Cc1cc(Oc2cc(C#N)ccc2-c2ncc(CCN)cn2)cc(OCC2CCO2)n1 (stereo not drawn) [compound 473, 4-[5-(2-aminoethyl)pyrimidin-2-yl]-3-[2-methyl-6-(oxetan-2-ylmethoxy)pyridin-4-yl]oxybenzonitrile]
11 | 10 to 1000 | Cc1cc(Oc2cc(C#N)ccc2-c2ncc(CC(C)(C)N)cn2)cc(N2CCOCC2)n1 [compound 476, 4-[5-(2-amino-2-methylpropyl)pyrimidin-2-yl]-3-(2-methyl-6-morpholin-4-ylpyridin-4-yl)oxybenzonitrile]
12 | < 10 | Cn1nc(C2CC2)cc1Oc1cc(C#N)ccc1-c1ncc(CC(C)(C)N)cn1 [compound 477, 4-[5-(2-amino-2-methylpropyl)pyrimidin-2-yl]-3-(5-cyclopropyl-2-methylpyrazol-3-yl)oxybenzonitrile]
13 | > 1000 | Cc1cc(Oc2cc(C#N)ccc2-c2ccc([C@H](O)CN)cn2)cc(OCCOC(C)C)n1 [compound 479, 4-[5-[(1S)-2-amino-1-hydroxyethyl]pyridin-2-yl]-3-[2-methyl-6-(2-propan-2-yloxyethoxy)pyridin-4-yl]oxybenzonitrile]
14 | > 1000 | Cn1nc(C2CC2)cc1Oc1cc(C#N)ccc1-c1cccc(CCN)n1 [compound 481, 4-[6-(2-aminoethyl)pyridin-2-yl]-3-(5-cyclopropyl-2-methylpyrazol-3-yl)oxybenzonitrile]
15 | < 10 | Cn1nc(C2CCCO2)cc1Oc1cc(C#N)ccc1-c1ccc(CCN)cn1 (stereo not drawn) [compound 484, 4-[5-(2-aminoethyl)pyridin-2-yl]-3-[2-methyl-5-(oxolan-2-yl)pyrazol-3-yl]oxybenzonitrile]
